Data published in the supplement of paper PMC10307832.

Experiments:
Assay in all cases: relative viability (nuclei count vs DMSO), 5 days (fraction); higher = more cells survive
Mirin + Luminespib = compound: N=C1NC(=O)/C(=C/c2ccc(O)cc2)S1 [Mirin] + CCNC(=O)c1noc(-c2cc(C(C)C)c(O)cc2O)c1-c1ccc(CN2CCOCC2)cc1 [Luminespib] (partner 0.01 µM)
Method in brief: (§1)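 Lung cancer cell lines were seeded in 1536-well plates and dosed by pin tool the next day, with either a single drug or a fixed anchor-drug dose combined with five library-drug doses (not always all listed) spaced in √10 steps. Five days later, one step fixed the cells and stained their nuclei (final 0.05% Triton X-100, 1% formaldehyde, 1 ug/ml Hoechst), and nuclei were counted on 4× images. Relative viability is the nuclei count in treated wells divided by the count in vehicle wells, and each value is the median of duplicate plates.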

[1] = compound: CCC1=CN=CN=C1N2CCN(CC2)CC3=NC4=C(N3)C=C(C=C4)C(F)(F)F + Cc1nc(Nc2ncc(C(=O)Nc3c(C)cccc3Cl)s2)cc(N2CCN(CCO)CC2)n1 [Dasatinib] (partner 0.075 µM)
Method in brief: as §1

Mirin + Lapatinib = compound: N=C1NC(=O)/C(=C/c2ccc(O)cc2)S1 [Mirin] + CS(=O)(=O)CCNCc1ccc(-c2ccc3ncnc(Nc4ccc(OCc5cccc(F)c5)c(Cl)c4)c3c2)o1 [Lapatinib] (partner 2 µM)
Method in brief: as §1

[2] = compound: CCn1c(-c2nonc2N)nc2cnc(Oc3cccc(NC(=O)c4ccc(OCCN5CCOCC5)cc4)c3)cc21 + CS(=O)(=O)N1CCN(Cc2cc3nc(-c4cccc5[nH]ncc45)nc(N4CCOCC4)c3s2)CC1 [Pictilisib] (partner 1 µM)
Method in brief: as §1

Cell Line | relative viability (Mirin + Luminespib; first compound 0.25 µM) | relative viability (Mirin + Luminespib; first compound 0.7906 µM) | relative viability (Mirin + Luminespib; first compound 2.5 µM) | relative viability (Mirin + Luminespib; first compound 7.906 µM) | relative viability (Mirin + Luminespib; first compound 25 µM) | relative viability ([1]; first compound 0.04 µM) | relative viability ([1]; first compound 0.1265 µM) | relative viability ([1]; first compound 0.4 µM) | relative viability ([1]; first compound 1.265 µM) | relative viability ([1]; first compound 4 µM) | relative viability (Mirin + Lapatinib; first compound 0.25 µM) | relative viability (Mirin + Lapatinib; first compound 2.5 µM) | relative viability (Mirin + Lapatinib; first compound 7.906 µM) | relative viability (Mirin + Lapatinib; first compound 25 µM) | relative viability ([2]; first compound 0.04 µM) | relative viability ([2]; first compound 0.1265 µM) | relative viability ([2]; first compound 1.265 µM) | relative viability ([2]; first compound 4 µM) | relative viability (Mirin + Lapatinib; first compound 0.7906 µM) | relative viability ([2]; first compound 0.4 µM)
SW 900 | 0.164 | 0.178 | 0.206 | 0.174 | 0.154 | 0.601 | 0.544 | 0.571 | 0.603 | 0.448 | – | – | – | – | – | – | – | – | – | –
NCI-H1944 | 0.679 | 0.751 | 0.694 | 0.543 | 0.359 | 0.228 | 0.217 | 0.211 | 0.208 | 0.22 | 0.904 | 0.774 | 0.747 | 0.486 | 0.373 | 0.341 | 0.269 | 0.307 | – | –
NCI-H838 | 0.316 | 0.332 | 0.285 | 0.229 | 0.396 | 0.295 | 0.237 | 0.28 | 0.26 | 0.289 | 1.15 | 1.07 | 0.898 | 0.658 | 0.397 | 0.292 | 0.286 | 0.256 | 0.454 | 0.231
NCI-H1650 | 0.183 | 0.176 | 0.175 | 0.18 | 0.179 | 0.346 | 0.299 | 0.333 | – | 0.309 | 0.774 | 0.891 | 0.708 | 0.465 | 0.9 | 0.595 | 0.502 | 0.527 | 0.501 | 0.551
HCC-827 | 0.673 | 0.665 | 0.724 | 0.841 | 1.03 | 0.323 | 0.298 | 0.313 | 0.364 | 0.355 | 0.167 | 0.17 | 0.2 | 0.227 | 1.08 | 1.06 | 0.824 | 0.933 | 0.182 | 1.09
HCC-366 | – | – | – | – | – | 0.566 | 0.655 | 0.567 | 0.583 | 0.629 | 1.06 | 1.07 | 0.986 | 0.752 | 0.124 | 0.151 | 0.0463 | 0.0657 | 0.957 | 0.0942
HARA | 0.808 | – | 0.693 | 0.773 | 0.372 | 0.371 | 0.337 | 0.19 | – | 0.203 | 0.836 | 0.742 | 0.652 | 0.665 | 0.345 | 0.345 | 0.148 | 0.0855 | 0.747 | 0.157
NCI-H441 | 0.377 | 0.321 | 0.343 | 0.269 | 0.282 | 0.761 | 0.545 | 0.581 | 0.668 | 0.605 | – | – | – | – | 0.582 | 0.541 | 0.386 | 0.376 | – | 0.438
LXF-289 | 0.662 | 0.689 | 0.651 | 0.666 | 0.634 | 0.161 | 0.21 | 0.242 | 0.191 | 0.209 | 0.906 | 0.91 | 1.04 | 1.04 | 0.923 | 0.761 | 0.56 | 0.516 | 1.01 | 0.539
RERF-LC-KJ | 1.25 | 1.25 | 1.36 | 1.2 | 1.18 | 0.768 | 0.714 | 0.846 | 0.69 | 0.696 | 0.972 | 0.891 | 0.835 | 0.95 | 0.541 | 0.452 | 0.476 | 0.377 | 0.968 | 0.516
CAL-12T | 0.364 | – | 0.369 | 0.696 | 0.548 | 0.336 | 0.352 | 0.417 | 0.518 | 0.36 | 0.702 | 0.92 | – | 0.238 | 0.486 | 0.549 | – | 0.408 | – | 0.525
COR-L 105 | 0.741 | 0.852 | 0.692 | 0.51 | 0.544 | 0.279 | 0.316 | 0.362 | 0.399 | 0.338 | 0.346 | 0.392 | 0.367 | 0.306 | 0.361 | 0.368 | 0.17 | 0.249 | 0.274 | 0.277
NCI-H2405 | 0.624 | 0.586 | 0.664 | 0.702 | 0.649 | 0.158 | 0.189 | 0.207 | – | 0.216 | 1.11 | 1.02 | 1.05 | 1.22 | 0.454 | 0.23 | 0.261 | 0.171 | 1.12 | 0.15
NCI-H2228 | 0.144 | 0.166 | 0.159 | 0.129 | 0.114 | 0.515 | 0.44 | 0.409 | 0.416 | 0.712 | 0.88 | 1.51 | 1.12 | 0.921 | 0.607 | 0.3 | 0.605 | 0.254 | 1 | 0.229
PC-14 | 0.177 | 0.142 | 0.191 | 0.187 | 0.144 | 0.269 | 0.258 | 0.264 | 0.218 | 0.264 | 0.373 | 0.339 | 0.382 | 0.49 | 1.06 | 0.708 | 0.619 | 0.666 | 0.39 | 0.751
NCI-H2087 | 0.184 | 0.135 | 0.169 | 0.161 | 0.158 | 0.729 | 0.809 | 0.529 | 0.508 | 0.598 | 1.09 | 0.91 | 1.12 | 1.14 | – | 1.07 | 0.881 | 0.785 | 1.07 | 0.981
A549 | – | – | – | – | – | – | – | – | – | – | 0.914 | 1.04 | 1.08 | 0.598 | 0.801 | 0.408 | 0.139 | 0.0926 | 1.15 | 0.436
NCI-H2342 | 0.671 | 0.815 | 0.753 | 0.592 | 0.7 | 0.317 | 0.316 | 0.327 | 0.32 | 0.338 | – | – | – | – | – | – | – | – | – | –
NCI-H1623 | 0.547 | 0.506 | 0.574 | 0.449 | 0.325 | 0.455 | 0.501 | 0.548 | 0.564 | 0.562 | – | – | – | – | – | – | – | – | – | –
